Data on one molecule can be found in US20210161868A1, “ANTI-INFLAMMATORY THERAPY IN ARRHYTHMOGENIC CARDIOMYOPATHY (ACM)” (Beth Israel Deaconess Medical Center, Inc., priority 2018, published 2021).

Structures are written as SMILES. “Also recorded” adds a separate entry of the source.

In assay [1] the test system is neonatal rat ventricular myocytes (NRVMs) expressing JUP^2157del2. Description: In vitro apoptosis assay (TUNEL) in NRVMs expressing mutant plakoglobin. The note with it: transfected NRVMs, 24 hours. Format: cell-based. The protocol:
Primary cultures were prepared from disaggregated ventricles of 1-day-old Wistar rat pups (Charles River) as previously described.^15 Cell suspensions were pre-plated to reduce fibroblast content, placed in collagen-coated chamber slides at a density of 2.4×10^5 cells/cm^2, and grown for 4 days at 37° C. in M199 medium (GIBCO) (supplemented with penicillin, 20 U/mL; streptomycin, 20 μg/mL; 10% neonatal calf serum and 0.1 mM bromodeoxyuridine) in a humidified atmosphere containing 1% CO2. Epinephrine (0.01 μmol/mL) was added during the first 24 hours of culture. At 24 hours post-seeding, cultures were transfected with an adenoviral construct expressing plakoglobin (JUP) with the 2157del2 mutation, as previously reported.^15 At 24 hours post-transfection, cultures were treated with Bay11-7082 (Sigma, […]) for an additional 24 hours. Transfected cultures treated with vehicle only (DMSO) and non-transfected cultures were used for control purposes.
Terminal deoxynucleotidyl transferase dUTP nick end labeling (TUNEL) was performed on neonatal rat myocyte cultures according to the manufacturer's protocol (Millipore, S7110). The number of TUNEL-positive nuclei was counted in 5 randomly selected high-power fields in each culture well and expressed as a per cent of total nuclei visualized with DAPI.

For assay [2], the system named is Dsg2^mut/mut mice. Briefly: Myocardial histology, TUNEL, immunofluorescence and immunoperoxidase in Dsg2^mut/mut mice. It is filed as in vivo. The protocol:
Three cohorts of mice at 8 weeks of age were anesthetized and implanted with subcutaneous osmotic mini-pumps (Alzet, Model 1004). These included: 1) Dsg2^mut/mut mice with pumps containing 50 μg/μL Bay11-7082 in a vehicle of 65% DMSO, 15% ethanol, and 20% saline; 2) Dsg2^mut/mut mice with pumps containing an equivalent volume of vehicle; and 3) wildtype mice with pumps containing vehicle. Mice in cohort 1 received 5 mg/kg/day of Bay11-7082 by continuous infusion; those in cohorts 2 and 3 received an equivalent volume of vehicle each day for 4 weeks. At 12 weeks of age, mice were re-anesthetized and new Alzet pumps were implanted for an additional 4 weeks of treatment.
Immunofluorescence staining was used to characterize the distribution of selected proteins at cell-cell junctions as previously reported.^6,15 Deparaffinized slide-mounted myocardial sections (5 μm thick) were rehydrated and heated in citrate buffer (10 mmol/L, pH 6.0) to enhance specific immunostaining. After being cooled to room temperature, tissue sections were simultaneously permeabelized and blocked by incubating them in PBS containing 1% Triton X-100, 3% normal goat serum and 1% bovine serum albumin. The sections were then incubated first with primary antibodies and then with Cy3-conjugated goat anti-rabbit IgG (Jackson Immunolabs, 1:400). Primary antibodies included rabbit polyclonal anti-Cx43 (SIGMA C6219, 1:200), anti-N-cadherin (SIGMA C3678, 1:400), anti-plakoglobin (Thermo Fisher Scientific PA5-17320, 1:500), anti-GSK3β (Cell Signaling Technology 27C10, 9315S, 1:80) and anti-SAP97 (Abcam, ab134156, 1:200). Immunostained preparations were visualized by confocal microscopy. Additional sections prepared with Masson trichrome and hematoxylin & eosin stains were examined by light microscopy.
Immunoperoxidase staining was used to detect expression of selected cytokines in sections of mouse myocardium as previously reported.^12 Slide-mounted paraffin sections were heated to 60° C. for 80 minutes, cooled to room temperature, deparaffinized, and rehydrated. Antigen retrieval was achieved by heating the samples in citrate buffer (pH 6.0) to boiling followed by cooling to room temperature. Immunohistochemical staining was performed using conventional methods (Universal DAKO EnVision System; peroxidase). Once endogenous peroxidase activity had been blocked, primary antibody was applied followed by incubation with horseradish peroxidase-labeled polymer. The reaction was completed with an enzyme/substrate system, with diaminobenzidine as the chromogen substrate. The tissue was counterstained with Harris hematoxylin. Primary antibodies included rabbit polyclonal anti-TNFα (AbCam ab34674, 1:50 dilution), anti-IL-1(3 (AbCam ab9722, 1:500) and anti-MCP-1α (Novus Biologicals NBP2-41209, 1:250). In each experiment, control, vehicle-treated and drug-treated samples were batched to ensure identical staining and signal-generating conditions.
Immunoperoxidase staining using conventional techniques was also used to detect T-cells and macrophages in myocardial tissue sections from Dsg2^mut/mut mice. T-cells were identified using an anti-CD3 antibody (Abcam ab16669, 1:200 dilution) and macrophages were marked with an anti-CD68 antibody (Abcam ab127055, 1:400). After standard development in diaminobenzidine, sections were counterstained with hematoxylin and examined qualitatively by light microscopy.

[3] abbreviates: Dsg2^mut/mut mice, continuous infusion over 8 weeks.

In the case of `Cc1ccc(S(=O)(=O)/C=C/C#N)cc1` [Bay 11-7082], the “myocyte apoptosis, TUNEL labeling” value in assay [1] was “normalization; also recorded: returned to control levels”. For the same molecule, in assay [2] (setting [3]), the “abnormal distributions of plakoglobin, Cx43, GSK3β and SAP97” value is “normalized”; the “amount of ventricular myocardial necrosis and fibrosis” value is “marked reduction”; the “number of apoptotic cells seen by TUNEL labeling” value was “significant reduction”. For the same molecule, the “abnormal distributions of plakoglobin, Cx43, GSK3β and SAP97” value in assay [2] (Dsg2^mut/mut mice, continuous infusion over 8 weeks, listed as Bay11-7082) is “fully corrected”. In addition, the “immunoreactive signal intensity for IL-1β, TNFα and MCP-1α in myocytes and inflammatory cells” value in assay [2] (myocardial sections of Dsg2^mut/mut mice) is listed as “reduced”. Further, in assay [2] (survey of myocardial sections, Dsg2^mut/mut mice), the “total number of infiltrating inflammatory cells in the heart” value was “reduced”.
